Entries after “also recorded” stand apart in the source; their conditions may differ.
Legend:
influenza virus = type: cell-based; settings: MDCK cells, screening concentration 50 μM, 36 h
MDCK cell = experiment: Cytotoxicity in the anti influenza virus assay (MDCK cells); type: cell-based; settings: screening concentration 50 μM
Procedure: CellTiter-Glo® Luminescent Cell Viability Assay
Screening concentration: 50 μM
MDCK cells were laid with 96 well plates (1×10^4/well) and incubated in 37° C. and 5% CO2 incubators for 24 h, then the medicine was added.
After dosing, the 96 well plate was put in the 37° C., 5% CO2 incubator for 36 h, and detected with the microplate reader.

ICR mice = experiment: Oral glucose tolerance (OGTT) pharmacodynamic experiment in ICR mice; type: in vivo; settings: for hypoglycemic effect: OGTT; for hypoglycemic activity: oral glucose tolerance, glucose 5 g/kg, compound given 0.5 h before sugar
Procedure: 1. Pharmacodynamic Experiment of Compound on Oral Glucose Tolerance in ICR Mice
After the animals arrived at WuXi AppTec facilities, they were kept in the animal feeding room with strictly controlled environmental conditions. The temperature was kept at 20-24° C. and the humidity was kept at 30-70% in the feeding room. The temperature and humidity of the feeding room were monitored in real time through the temperature and humidity meter, and the temperature and humidity were recorded twice a day (once in the morning and once in the afternoon). The lighting in the animal feeding room was controlled by an electronic timing lighting system, which was turned on for 12 hours every day and turned off for 12 hours (on at 7:00 a.m. and off at 19:00 p.m.). During the experiment, the animals were raised in a single cage and toys were provided for mice in each cage. During the experiment, the animals freely took food (growth/reproduction feed for rats and mice) and water.
After the animals arrived, they can adapt to the environment for 1-2 weeks before conducting the experiment.
1) Preparation of liquid medicine: each compound was prepared on the first day of the experiment, and then stored in a 4° C. refrigerator for use on the next day.
2) Administration: After grouping, animals in each group were administered 0.5 hours before sugar administration.
3) Oral glucose tolerance experiment: sugar was administrated to the animals by gavage 0.5 hour after the end of the animal administration, and the time of sugar administration was recorded as 0 min. The oral dose of glucose was 5 g/kg, 10 ml/kg. The blood glucose of animals was detected before administration, before sugar administration, and 15, 30, 60, 90, and 120 minutes after sugar administration. The blood glucose was detected with a blood glucose meter and the corresponding blood glucose test paper.

[1] = system: intestinal endocrine cell line STC-1 cell; experiment: In vitro GLP-1 secretion in STC-1 cells (HTRF kit); type: cell-based; settings: for EC50: 1 h treatment, read-out: EC50 of promoting GLP-1 secretion in vitro
Procedure: Cell line: intestinal endocrine cell line STC-1 cell
Positive control: INT777 (TGR5 receptor agonist)
Others: KRBH buffer, BSA, DPP4 inhibitor
STC-1 cells were seeded with a certain density. After the cells adhered to the wall overnight, they were starved with KRBH buffer, while BSA was used to maintain nutrition, and degradation of GLP-1 was reduced with DPP4 inhibitors. After 1 h, they were replaced with glucose free or glucose containing KRBH buffer to stimulate GLP-1 secretion. At the same time, compounds of certain concentrations were added. After 1 h of treatment, supernatant was collected and tested for GLP-1 concentration with HTRF kit. The secretion of LDH was also detected to indicate the toxicity of the compounds.

SARS Cov-2 virus = SARS Cov-2 virus replication inhibition in Vero E6 cells (viral copy number by qPCR); type: cell-based; settings: Severe acute respiratory syndrome coronavirus 2, Vero C1008, MOI 0.05, 24 hours
PK property in mice = type: in vivo, ICR (CD-1) mice; settings: PO 25 mg/kg, IV 3 mg/kg
Procedure: Species/strain: ICR (CD-1) mice
Gender/number of rats: male (n=6)
Weight (g): male (20-24 g)
Type of diet: standard rodent diet • freely drink • Fasted for 12 hours before administration and keeping fasting for 2 hours.
Feeding: animal room environment control (target conditions: temperature 18 to 29° C., relative humidity 30 to 70%. Temperature and relative humidity were monitored every day. The electronic time control lighting system was used to provide 12 hours of light/12 hours of dark cycle.

CC1(C)CC[C@]2(C(=O)O)CC[C@]3(C)C(=CCC4[C@@]5(C)CC[C@H]([C@@H](O)[C@@H]6OC(CO)[C@@H](O)C(O)C6O)C(C)(C)C5CC[C@]43C)C2C1 (stereo partly drawn) [Example A2, (3S,5S,8R,9R,10S,14R,17R,18S)-Oleanolicacid-3-(1′R)-(hydroxyl)methyl-β-D-glucopyranoside]
virus inhibition rate (influenza virus): same virus inhibition rate
cytotoxicity (MDCK cell): low cytotoxicity; also recorded: lower cytotoxicity than that of ribavirin

CC1(C)CC[C@]2(C(=O)O)CC[C@]3(C)C(=CCC4[C@@]5(C)CC[C@H]([C@@H](O)[C@@H]6OC(C(=O)O)[C@@H](O)C(O)C6O)C(C)(C)C5CC[C@]43C)C2C1 (stereo partly drawn) [Example A25, (3S,5S,8R,9R,10S,14R,17R,18S)-Oleanolic acid-3-(1′R)-(hydroxy)methyl-β-D-glucurouopyranoside]
hypoglycemic effect (ICR mice; 25 mg/kg): obvious hypoglycemic effect
hypoglycemic effect (ICR mice; 50 mg/kg): further enhanced hypoglycemic effect
hypoglycemic activity (ICR mice): good in vivo hypoglycemic effect; also recorded: best hypoglycemic activity

CC1O[C@@H]([C@H](O)[C@H]2CC[C@@]3(C)C(CC[C@]4(C)C3CC=C3C5CC(C)(C)CC[C@]5(C(=O)O)CC[C@]34C)C2(C)C)C(O)C(O)[C@H]1O (stereo partly drawn) [Example A43, (3S,5S,8R,9R,10S,14R,17R,18S)-Oleanolic acid-3-(1'S)-(hydroxy)methyl-α-L-rhamnopyranoside]
hypoglycemic effect (ICR mice; 25 mg/kg): obvious hypoglycemic effect
hypoglycemic effect (ICR mice; 50 mg/kg): further enhanced hypoglycemic effect
hypoglycemic activity (ICR mice): good in vivo hypoglycemic effect; also recorded: best hypoglycemic activity

CC1(C)CC[C@]2(C(=O)O)CC[C@]3(C)C(=CCC4[C@@]5(C)CC[C@@H](C[C@@H]6OC(C(=O)O)[C@@H](O)C(O[C@@H]7OC[C@@H](O)C(O)C7O)C6O)C(C)(C)C5CC[C@]43C)C2C1 (stereo partly drawn) [Example A64, (3R,5S,8R,9R,10S,14R,17R,18S)-Oleanolic acid-3-methyl-β-D-xylopyranosyl(1→3)-β-D-glucurouopyranoside]
in vitro effect of promoting GLP-1 secretion [1]: good in vitro effect of promoting GLP-1 secretion
EC50 [1]: 7.23 µM

CC1(C)CC[C@]2(C(=O)OCn3cccn3)CC[C@]3(C)C(=CCC4[C@@]5(C)CC[C@H]([C@@H](O)[C@@H]6OC(C(=O)O)[C@@H](O)C(O)C6O)C(C)(C)C5CC[C@]43C)C2C1 (stereo partly drawn) [Example A104, (3S,5S,8R,9R,10S,14R,17R,18S)-28-O-(Pyrazol-1″′-yl)methyl oleanolic acid-3-(1′R)-(hydroxy)methyl-β-D-glucurouopyranoside]
EC50 (SARS Cov-2 virus): 3.6 µM
PK properties (PK property in mice): good PK properties

CNC(=O)C1O[C@@H]([C@H](O)[C@H]2CC[C@@]3(C)C(CC[C@]4(C)C3CC=C3C5CC(C)(C)CC[C@]5(C(=O)O)CC[C@]34C)C2(C)C)C(O)C(O)[C@@H]1O (stereo partly drawn) [Example A114, (3S,5S,8R,9R,10S,14R,17R,18S)-Oleanolic acid-3-(1′R)-(hydroxy)methyl-6″-methylamino-β-D-glucurouopyranoside]
EC50 (SARS Cov-2 virus): 4.6 µM

CC[C@H]1[C@@H](O)[C@@H]2[C@H](C[C@H](O)[C@]3(C)[C@@H]([C@H](C)C[C@H](C)C(=O)O)CC[C@@H]23)[C@@]2(C)CC[C@@H](O)C[C@@H]12 [INT777, reference compound]
EC50 [1]: 22.8 µM

— US20240262860A1, “PENTACYCLIC TRITERPENOID GLYCOSIDE COMPOUND, AND PREPARATION METHOD THEREFOR AND USE THEREOF” (SHANGHAI INSTITUTE OF MATERIA MEDICA, CHINESE ACADEMY OF …, priority 2020, published 2024)
